# Assay results: ChEMBL document CHEMBL5365399, “Design, synthesis and evaluation of new pyrimidine derivatives as EGFRC797S tyrosine kinase inhibitors” (Bioorg Med Chem Lett, 2023)
# Calls of active or inactive are those of the source. The rule behind the calls is not given here.
# Columns and labels:
# [1] = (§1) Antiproliferative activity against mouse KC-0116 cells by MTT assay; assay type: functional, cell-based
# [2] = system: KC-0116; test: as §1; assay type: functional, cell-based
# [3] = Antiproliferative activity against mouse KC-0122 cells by MTT assay; assay type: functional, cell-based
# [4] = system: KC-0116; test: Induction of apoptosis in mouse KC-0116 cells measured after 36 hrs by Annexin V/propidium iodide staining based flow cytometry; assay type: functional, cell-based; conditions: dose 0.1-3 µM
# [5] = system: NCI-H1975; test: Antiproliferative activity against human NCI-H1975 cells by MTT assay; assay type: functional, cell-based
# [6] = system: HCC827; test: Antiproliferative activity against human HCC827 cells by MTT assay; assay type: functional, cell-based
# [7] = system: A-431; test: Antiproliferative activity against human A-431 cells by MTT assay; assay type: functional, cell-based
# [8] = system: KC-0116; test: Inhibition of EGFR-del19/T790M/C797S in mouse KC-0116 cells assessed as reduction in EGFR phosphorylation measured after 8 hrs by Western blot analysis; assay type: cell-based; conditions: dose 0.3-3 µM
# [9] = system: KC-0116; test: Inhibition of EGFR-del19/T790M/C797S in mouse KC-0116 cells assessed as reduction in AKT phosphorylation measured after 8 hrs by Western blot analysis; assay type: cell-based; conditions: dose 0.3-3 µM
# [10] = Induction of apoptosis in mouse KC-0116 cells assessed as viable cells at 100 nM measured after 36 hrs by Annexin V/propidium iodide staining based flow cytometry (reference value: 90.66%); assay type: functional; conditions: read-out: Activity
# [11] = Induction of apoptosis in mouse KC-0116 cells assessed as early apoptotic cells at 100 nM measured after 36 hrs by Annexin V/propidium iodide staining based flow cytometry (reference value: 6.85%); assay type: functional
# [12] = Induction of apoptosis in mouse KC-0116 cells assessed as late apoptotic cells at 100 nM measured after 36 hrs by Annexin V/propidium iodide staining based flow cytometry (reference value: 2.47%); assay type: functional
# [13] = Induction of apoptosis in mouse KC-0116 cells assessed as necrotic cells at 100 nM measured after 36 hrs by Annexin V/propidium iodide staining based flow cytometry (reference value: 0.03%); assay type: functional
# [14] = Induction of apoptosis in mouse KC-0116 cells assessed as viable cells at 300 nM measured after 36 hrs by Annexin V/propidium iodide staining based flow cytometry (reference value: 90.66%); assay type: functional; conditions: read-out: Activity
# [15] = Induction of apoptosis in mouse KC-0116 cells assessed as early apoptotic cells at 300 nM measured after 36 hrs by Annexin V/propidium iodide staining based flow cytometry (reference value: 6.85%); assay type: functional
# [16] = Induction of apoptosis in mouse KC-0116 cells assessed as late apoptotic cells at 300 nM measured after 36 hrs by Annexin V/propidium iodide staining based flow cytometry (reference value: 2.47%); assay type: functional
# [17] = Induction of apoptosis in mouse KC-0116 cells assessed as necrotic cells at 300 nM measured after 36 hrs by Annexin V/propidium iodide staining based flow cytometry (reference value: 0.03%); assay type: functional
# [18] = system: KC-0116; test: Cell cycle arrest in mouse KC-0116 cells assessed as increase in cell population at G2/M-phase at 0.1 to 0.3 uM measured after 48 hrs by flow cytometry; assay type: functional, cell-based; conditions: dose 0.1-0.3 µM
# [19] = Antiproliferative activity against mouse Ba/F3 EGFR-T790M/C797S/L858R cells; assay type: functional, cell-based
# [20] = Antiproliferative activity against mouse Ba/F3 EGFR-Del19/T790M/C797S cells; assay type: functional, cell-based
smiles,measurement,setting,value
CN1CCN(c2ccc(Nc3ncc(Br)c(NC4CCN(S(C)(=O)=O)CC4)n3)cc2)CC1,IC50,[1],940 nM
CN1CCN(c2ccc(Nc3ncc(-c4ccccc4)c(Nc4cccc(NC(=O)CN)c4)n3)cc2)CC1,IC50,[1],> 3300 nM
CN1CCN(c2ccc(Nc3ncc(Br)c(N[C@@H]4CCCN(S(=O)(=O)C5CC5)C4)n3)cc2)CC1,IC50,[1],200 nM
same,Activity,[2],Dose-Dependent Effect
same,IC50,[3],210 nM
same,Activity,[4],Dose-Dependent Effect
same,IC50,[5],> 3300 nM
same,IC50,[6],> 3300 nM
same,IC50,[7],620 nM
same,inhibition,[8],Dose-Dependent Effect
same,inhibition,[9],Dose-Dependent Effect
same,viability at 0.1 µM,[10],83.9%
same,Activity,[11],11.51%
same,Activity,[12],4.61%
same,Activity,[13],0.01%
same,viability at 0.3 µM,[14],80.2%
same,Activity,[15],14.6%
same,Activity,[16],5.19%
same,Activity,[17],0%
same,Activity,[18],Active
CN(C)C1CCN(c2ccc(Nc3ncc(Cl)c(N[C@H]4CCN(S(=O)(=O)C5CC5)C4)n3)cc2)CC1,IC50,[1],> 3300 nM
CN(C)C1CCN(c2ccc(Nc3ncc(Cl)c(N[C@@H]4CCCN(C(=O)CO)C4)n3)cc2)CC1,IC50,[1],> 3300 nM
CN(C)C1CCN(c2ccc(Nc3ncc(Cl)c(N[C@@H]4CCN(S(=O)(=O)C5CC5)C4)n3)cc2)CC1,IC50,[1],460 nM
CN1CCN(c2ccc(Nc3ncc(Br)c(N[C@H]4CCN(S(=O)(=O)C5CC5)C4)n3)cc2)CC1,IC50,[1],1130 nM
CN(C)C1CCN(c2ccc(Nc3ncc(Cl)c(N[C@H]4CCCN(C(=O)CO)C4)n3)cc2)CC1,IC50,[1],1660 nM
CN1CCN(c2ccc(Nc3ncc4c5ccc(OC(F)(F)F)cc5n(-c5cccc(NC(=O)CN)c5)c4n3)cc2)CC1,IC50,[1],> 3300 nM
CN(C)C1CCN(c2ccc(Nc3ncc(Cl)c(NC4CCN(C(=O)CO)CC4)n3)cc2)CC1,IC50,[1],2460 nM
CN1CCN(c2ccc(Nc3ncc(Br)c(NCc4ccccn4)n3)cc2)CC1,IC50,[1],1310 nM
COc1cc(N2CCC(N3CCN(C)CC3)CC2)c(C)cc1Nc1ncc(Br)c(Nc2ccc3nccnc3c2P(C)(C)=O)n1,IC50,[19],0.21 nM
same,IC50,[20],0.16 nM
CN1CCN(c2ccc(Nc3ncc4c5ccccc5n([C@H]5CCN(S(=O)(=O)C6CC6)C5)c4n3)cc2)CC1,IC50,[1],> 3300 nM
C=CC(=O)Nc1cc(Nc2nccc(-c3cn(C)c4ccccc34)n2)c(OC)cc1N(C)CCN(C)C [OSIMERTINIB],IC50,[1],1430 nM
same,IC50,[3],1530 nM
same,IC50,[6],1 nM
CN1CCN(c2ccc(Nc3ncc4c5ccccc5n(-c5ccc(NC(=O)CN)cc5)c4n3)cc2)CC1,IC50,[1],> 3300 nM
CN1CCN(c2ccc(Nc3ncc(Br)c(N[C@@H]4CCN(S(=O)(=O)C5CC5)C4)n3)cc2)CC1,IC50,[1],3010 nM
CN1CCN(c2ccc(Nc3ncc4c5ccccc5n(-c5cccc(NS(C)(=O)=O)c5)c4n3)cc2)CC1,IC50,[1],> 3300 nM
CN1CCN(c2ccc(Nc3ncc(Cl)c(N[C@H]4CC[C@H](O)CC4)n3)cc2)CC1,IC50,[1],310 nM
CN1CCN(c2ccc(Nc3ncc(C(F)(F)F)c(N[C@H]4CC[C@H](O)CC4)n3)cc2)CC1,IC50,[1],> 3300 nM
CN1CCN(c2ccc(Nc3ncc4c5ccccc5n(-c5cccc(NCCO)c5)c4n3)cc2)CC1,IC50,[1],> 3300 nM
COc1cc(N2CCC(N3CCN(C)CC3)CC2)ccc1Nc1ncc(Cl)c(Nc2ccccc2P(C)(C)=O)n1 [BRIGATINIB],IC50,[19],5.57 nM
same,IC50,[1],360 nM
same,IC50,[3],440 nM
same,IC50,[5],830 nM
same,IC50,[6],13 nM
same,IC50,[7],500 nM
same,viability at 0.3 µM,[14],90.8%
same,Activity,[15],7.2%
same,Activity,[16],1.94%
same,Activity,[17],0.02%
CN1CCN(c2ccc(Nc3ncc(Br)c(N[C@H]4CC[C@H](O)CC4)n3)cc2)CC1,IC50,[1],240 nM
same,IC50,[3],250 nM
same,IC50,[5],580 nM
same,IC50,[6],650 nM
same,IC50,[7],> 3300 nM
CN(C)C1CCN(c2ccc(Nc3ncc(Br)c(N[C@H]4CC[C@H](O)CC4)n3)cc2)CC1,IC50,[1],480 nM
CC(=O)N1CCC(Nc2nc(Nc3ccc(N4CCN(C)CC4)cc3)ncc2Br)CC1,IC50,[1],950 nM
CN1CCN(c2ccc(Nc3ncc(Br)c(NC4CCN(S(=O)(=O)C5CC5)CC4)n3)cc2)CC1,IC50,[1],1100 nM
CN1CCN(c2ccc(Nc3ncc(-c4ccccc4)c(N[C@H]4CCN(S(=O)(=O)C5CC5)C4)n3)cc2)CC1,IC50,[1],> 3300 nM
CN1CCN(c2ccc(Nc3ncc(Br)c(NC4CCOCC4)n3)cc2)CC1,IC50,[1],710 nM
CN(C)C1CCN(c2ccc(Nc3ncc(Cl)c(N[C@H]4CCN(C(=O)CO)C4)n3)cc2)CC1,IC50,[1],> 3300 nM
CN1CCN(c2ccc(Nc3ncc4c5ccccc5n(-c5cccc(NC(=O)CO)c5)c4n3)cc2)CC1,IC50,[1],> 3300 nM
CN1CCN(c2ccc(Nc3ncc(Br)c(N[C@H]4CCCN(S(=O)(=O)C5CC5)C4)n3)cc2)CC1,IC50,[1],2000 nM
CN1CCN(c2ccc(Nc3ncc(Br)c(Nc4cccc(NC(=O)CN)c4)n3)cc2)CC1,IC50,[1],440 nM
